Test results reported in US20260001875A1, “AMINOPYRIMIDINYL DERIVATIVES FOR THE TREATMENT OF PARKINSON'S DISEASE” (UNIVERSITY OF DUNDEE, priority 2022, published 2026).

Key:
[1] = tested on: Rab10 pThr73; experiment: Rab10 Thr73 dephosphorylation (immunoblot) in LRRK2^G2019S MEFs; format: cell-based; settings: Mus musculus, read-out: pRab10 inhibited in LRRK2^G2019S MEFs
Description: (§1) The second-generation PROTACs were tested in parallel with the first generation PROTACs SD75, SD82, and SD100. The compounds were tested at 33 nM or […] concentrations for 4 hours or 24 hours, running two biological replicates per condition and achieving quantifications representative of both replicates. Analysis by quantitative immunoblotting was performed with readouts of the total LRRK2 (antibody recognizes epitope in C-terminus of protein), Rab10 pThr73 (physiological substrate) and LRRK2 pSer935 (biomarker phosphorylation site).
(§2) Primary MEFs were generated as described in a previous study (Wiggin et al., Mol. Cell Biol. 2002 April; 22(8):2871-81.). Briefly, the uterine horn was collected from adult female mice at day E12.5 and transferred to a 10 cm tissue culture dish containing cold PBS. Two forceps were used to tear the yolk sacs to isolate each embryo. Forceps were cleaned thoroughly with 70% ethanol between each embryo isolation. The embryos were culled, and a tissue piece was collected in a PCR tube for genotyping. The red tissue of the embryo, which grows to become the heart and liver, was removed. The remainder of the embryo was minced with a scalpel blade and incubated with 7.5 ml trypsin-EDTA solution for 10 minutes in a 37° C. tissue culture CO2 incubator. The dish was removed from the incubator and checked under a light microscope for single cells. 7.5 ml complete media was added to the trypsinised cells, and the cell suspension was transferred to a 15 ml Falcon tube, centrifuged at 1200 rpm for 5 minutes at room temperature. The trypsin was aspirated, the cell pellet was resuspended in 5 ml fresh complete media, and the cell suspension was plated in a 60 mm tissue culture dish and incubated in a 37° C., 5% CO2 tissue culture incubator. The MEFs at this stage were considered as passage 0 and were passaged and expanded for experimental use once the genotype was confirmed by allelic sequencing and immunoblotting. MEFs were cultured in Dulbecco's modified Eagle medium (DMEM) containing 10% (v/v) fetal bovine serum (FBS), 2 mM L-glutamine, 100 U/ml penicillin, and 100 μg/ml streptomycin supplemented with 1× non-essential amino acids and 1 mM sodium pyruvate.
Culturing and passaging of adherent cell lines were carried out using aseptic technique in CL1 or CL2 (for PBMC isolation) biological safety cabinets. All cells were incubated in a 37° C. incubator with 5% CO2. Cell lines were regularly tested for mycoplasma contamination. For western blot assay, the cells were seeded in 6-well plates. […] The cells were immediately placed on ice and were scraped and collected into 1.5 ml Eppendorf tubes. Cell lysates were incubated on ice for 10 minutes prior to centrifugation at 15,000 g at 4° C. for 15 minutes. The cell pellet was discarded, and supernatant was collected for analysis by quantitative immunoblotting. For long term storage, the supernatant was flash frozen and stored at −80° C. Protein concentrations of cell lysates were determined using the Bradford assay.
Cell lysates containing a quarter of a volume of 4× NuPAGE LDS sample buffer (NP0007) supplemented with 5% β-mercaptoethanol, were heated at 95° C. for 5 minutes. 15 to 20 μg of samples were loaded onto pre-cast 4-12% Bis-Tris midi 20W or 26W gels (Thermofisher Scientific®, Cat #WG1402BOX or WG1403BOX) and resolved at 130 V for 2 hours with NuPAGE MOPS SDS running buffer (Thermofisher Scientific® Cat #NP0001-02). Proteins were electrophoretically transferred onto a 0.45 μm nitrocellulose membrane (GE Healthcare, Amersham Protran® Supported 0.45 mm NC) at 90 V for 90 min on ice in transfer buffer (48 mM Tris base and 39 mM glycine supplemented with 20% methanol). The transferred membrane was blocked with 5% (w/v) skim milk powder dissolved in tris-buffered saline with tween (TBS-T) (50 mM Tris base, 150 mM sodium chloride (NaCl), 0.1% (v/v) Tween-20) at room temperature for 1 hour.

[2] = tested on: Rab10 pThr73; experiment: as above; format: cell-based, mouse; settings: Mus musculus, read-out: pRab10 inhibited in LRRK2^G2019S MEFs
[3] = tested on: Rab10 pThr73; experiment: Rab10 Thr73 dephosphorylation (immunoblot) in WT MEFs; format: cell-based, mouse; settings: Mus musculus, read-out: pRab10 inhibited in WT MEFs
Description: as §1, with “Western blot degradation assays for the LRRK2 protacs were performed with WT and PD-associated LRRK2 [G2019S] mouse embryonic fibroblasts (MEFs). The second-generation” for “The second-generation”
as §2
Culturing and passaging of adherent cell lines were carried out using aseptic technique in CL1 or CL2 (for PBMC isolation) biological safety cabinets. All cells were incubated in a 37° C. incubator with 5% CO2. Cell lines were regularly tested for mycoplasma contamination. For western blot assay, the cells were seeded in 6-well plates. After treating with testing compounds at indicated concentrations and time period, the media was removed and the cells were washed with PBS and lysed in 100 μl ice-cold complete lysis buffer containing 50 mM Tris-HCl pH 7.4, 1 mM EGTA, 10 mM 2-glycerophosphate, 50 mM sodium fluoride, 5 mM sodium pyrophosphate, 270 mM sucrose, supplemented with 1 μg/ml microcystin-LR, 1 mM sodium orthovanadate, complete EDTA-free protease inhibitor cocktail (Roche) and 1% (v/v) Triton X-100. The cells were immediately placed on ice and were scraped and collected into 1.5 ml Eppendorf tubes. Cell lysates were incubated on ice for 10 minutes prior to centrifugation at 15,000 g at 4° C. for 15 minutes. The cell pellet was discarded, and supernatant was collected for analysis by quantitative immunoblotting. For long term storage, the supernatant was flash frozen and stored at −80° C. Protein concentrations of cell lysates were determined using the Bradford assay.
Cell lysates containing a quarter of a volume of 4× NuPAGE LDS sample buffer (NP0007) supplemented with 5% β-mercaptoethanol, were heated at 95° C. for 5 minutes. […]

In the case of `CNc1nc(Nc2ccc(C(=O)N3CCN(CC4CC[C@H](CSC(C)(C)C(NC(=O)C5(F)CC5)C(=O)N5C[C@H](O)C[C@H]5C(=O)NCc5ccc(-c6scnc6C)cc5)C4)CC3)cc2OC)ncc1Cl` (stereo in doubt) [XL02093, (2S,4R)-1-((S)-3-((((1S,3S)-3-((4-(4-((5-chloro-4-(methylamino)pyrimidin-2-yl)amino)-3-methoxybenzoyl)piperazin-1-yl)methyl)cyclopentyl)methyl)thio)-2-(1-fluorocyclopropane-1-carboxamido)-3-methylbutanoyl)-4-hydroxy-N-(4-(4-methylthiazol-5-yl)benzyl)pyrrolidine-2-carboxamide], the inhibition at 0.033 µM ([1]; 33 nM/4 h treatment) is reported as 20 to 50%, the inhibition at 1 µM ([2]; 1 μM/4 h treatment) is reported as 80 to 100% and the inhibition at 0.033 µM ([3]; 33 nM/4 h treatment) is reported as 20 to 40%. It also gave an inhibition at 1 µM ([3]; 1 μM/4 h treatment) of 75 to 90%.
Compound `CNc1nc(Nc2ccc(C(=O)N3CCN(CCOCCOCCN4CCN(c5ccc6c(c5)C(=O)N(C5CCC(=O)NC5=O)C6=O)CC4)CC3)cc2OC)ncc1Cl` (stereo not shown) [SD10, 5-(4-(2-(2-(2-(4-(4-((5-chloro-4-(methylamino)pyrimidin-2-yl)amino)-3-methoxybenzoyl)piperazin-1-yl)ethoxy)ethoxy)ethyl)piperazin-1-yl)-2-(2,6-dioxopiperidin-3-yl)isoindoline-1,3-dione] has an inhibition at 0.033 µM ([1]; 33 nM/4 h treatment) of 0 to 60%, an inhibition at 0.033 µM ([1]; 33 nM/24 h treatment) of 0 to 70% and an inhibition at 1 µM ([2]; 1 μM/4 h treatment) of 30 to 95%. The inhibition at 1 µM ([2]; 1 μM/24 h treatment) was 30 to 100%, the inhibition at 0.033 µM ([3]; 33 nM/4 h treatment) was 0 to 25% and the inhibition at 0.033 µM ([3]; 33 nM/24 h treatment) was 10 to 40%. It also gave an inhibition at 1 µM ([3]; 1 μM/4 h treatment) of 18 to 90% and an inhibition at 1 µM ([3]; 1 μM/24 h treatment) of 30 to 90%.
`CNc1nc(Nc2ccc(C(=O)N3CCN(CCCN4CCN(c5ccc6c(c5)C(=O)N(C5CCC(=O)NC5=O)C6=O)CC4)CC3)cc2OC)ncc1Cl` (stereo not shown) [SD11, 5-(4-(3-(4-(4-((5-chloro-4-(methylamino)pyrimidin-2-yl)amino)-3-methoxybenzoyl)piperazin-1-yl)propyl)piperazin-1-yl)-2-(2,6-dioxopiperidin-3-yl)isoindoline-1,3-dione] was tested, and the inhibition at 0.033 µM ([1]; 33 nM/4 h treatment) was 0 to 60%, the inhibition at 0.033 µM ([1]; 33 nM/24 h treatment) was 0 to 70% and the inhibition at 1 µM ([2]; 1 μM/4 h treatment) was 30 to 95%. The inhibition at 1 µM ([2]; 1 μM/24 h treatment) was 30 to 100%, the inhibition at 0.033 µM ([3]; 33 nM/4 h treatment) was 0 to 25% and the inhibition at 0.033 µM ([3]; 33 nM/24 h treatment) was 10 to 40%. The inhibition at 1 µM ([3]; 1 μM/4 h treatment) was 18 to 90% and the inhibition at 1 µM ([3]; 1 μM/24 h treatment) was 30 to 90%.
`CNc1nc(Nc2ccc(C(=O)N3CCN(CCOCCOCCOc4cc(-c5scnc5C)ccc4CNC(=O)[C@@H]4C[C@@H](O)CN4C(=O)[C@@H](NC(=O)C4(F)CC4)C(C)(C)C)CC3)cc2OC)ncc1Cl` [SD12, (2S,4R)—N-(2-(2-(2-(2-(4-(4-((5-chloro-4-(methylamino)pyrimidin-2-yl)amino)-3-methoxybenzoyl)piperazin-1-yl)ethoxy)ethoxy)ethoxy)-4-(4-methylthiazol-5-yl)benzyl)-1-((S)-2-(1-fluorocyclopropane-1-carboxamido)-3,3-dimethylbutanoyl)-4-hydroxypyrrolidine-2-carboxamide] gave an inhibition at 0.033 µM ([1]; 33 nM/4 h treatment) of 0 to 60%, an inhibition at 0.033 µM ([1]; 33 nM/24 h treatment) of 0 to 70% and an inhibition at 1 µM ([2]; 1 μM/4 h treatment) of 30 to 95%. For the same compound, the inhibition at 1 µM ([2]; 1 μM/24 h treatment) was 30 to 100%, the inhibition at 0.033 µM ([3]; 33 nM/4 h treatment) was 0 to 25% and the inhibition at 0.033 µM ([3]; 33 nM/24 h treatment) was 10 to 40%. For the same compound, the inhibition at 1 µM ([3]; 1 μM/4 h treatment) was 18 to 90% and the inhibition at 1 µM ([3]; 1 μM/24 h treatment) was 30 to 90%.
For `CNc1nc(Nc2ccc(C(=O)N3CCN(CCCOc4cc(-c5scnc5C)ccc4CNC(=O)[C@@H]4C[C@@H](O)CN4C(=O)[C@@H](NC(=O)C4(F)CC4)C(C)(C)C)CC3)cc2OC)ncc1Cl` [SD13, (2S,4R)—N-(2-(3-(4-(4-((5-chloro-4-(methylamino)pyrimidin-2-yl)amino)-3-methoxybenzoyl)piperazin-1-yl)propoxy)-4-(4-methylthiazol-5-yl)benzyl)-1-((S)-2-(1-fluorocyclopropane-1-carboxamido)-3,3-dimethylbutanoyl)-4-hydroxypyrrolidine-2-carboxamide], the inhibition at 0.033 µM ([1]; 33 nM/4 h treatment) was 0 to 60%, the inhibition at 0.033 µM ([1]; 33 nM/24 h treatment) was 0 to 70% and the inhibition at 1 µM ([2]; 1 μM/4 h treatment) was 30 to 95%. It also gave an inhibition at 1 µM ([2]; 1 μM/24 h treatment) of 30 to 100%, an inhibition at 0.033 µM ([3]; 33 nM/4 h treatment) of 0 to 25% and an inhibition at 0.033 µM ([3]; 33 nM/24 h treatment) of 10 to 40%. It also gave an inhibition at 1 µM ([3]; 1 μM/4 h treatment) of 18 to 90% and an inhibition at 1 µM ([3]; 1 μM/24 h treatment) of 30 to 90%.
`CNc1nc(Nc2ccc(C(=O)N3CCN(CCOCCOCCOCCOCCOc4cc(-c5scnc5C)ccc4CNC(=O)[C@@H]4C[C@@H](O)CN4C(=O)[C@@H](NC(=O)C4(F)CC4)C(C)(C)C)CC3)cc2OC)ncc1Cl` [SD79, (2S,4R)—N-(2-((14-(4-(4-((5-chloro-4-(methylamino)pyrimidin-2-yl)amino)-3-methoxybenzoyl)piperazin-1-yl)-3,6,9,12-tetraoxatetradecyl)oxy)-4-(4-methylthiazol-5-yl)benzyl)-1-((S)-2-(1-fluorocyclopropane-1-carboxamido)-3,3-dimethylbutanoyl)-4-hydroxypyrrolidine-2-carboxamide] showed an inhibition at 0.033 µM ([1]; 33 nM/4 h treatment) of 0 to 60%, an inhibition at 0.033 µM ([1]; 33 nM/24 h treatment) of 0 to 70% and an inhibition at 1 µM ([2]; 1 μM/4 h treatment) of 30 to 95%. It also gave an inhibition at 1 µM ([2]; 1 μM/24 h treatment) of 30 to 100%, an inhibition at 0.033 µM ([3]; 33 nM/4 h treatment) of 0 to 25% and an inhibition at 0.033 µM ([3]; 33 nM/24 h treatment) of 10 to 40%. The inhibition at 1 µM ([3]; 1 μM/4 h treatment) was 18 to 90% and the inhibition at 1 µM ([3]; 1 μM/24 h treatment) was 30 to 90%.
Compound `CNc1nc(Nc2ccc(C(=O)N3CCN(CCOCCOCCOCCOCCOc4cccc(C(=O)c5csc(C6CCCN6C(=O)[C@@H](NC(=O)[C@H](C)NC)C6CCCCC6)n5)c4)CC3)cc2OC)ncc1Cl` (stereo partly drawn) [SD112, (S)—N—((S)-2-((S)-2-(4-(3-((14-(4-(4-((5-chloro-4-(methylamino)pyrimidin-2-yl)amino)-3-methoxybenzoyl)piperazin-1-yl)-3,6,9,12-tetraoxatetradecyl)oxy)benzoyl)thiazol-2-yl)pyrrolidin-1-yl)-1-cyclohexyl-2-oxoethyl)-2-(methylamino)propenamide] has an inhibition at 0.033 µM ([1]; 33 nM/4 h treatment) of 0 to 60%, an inhibition at 0.033 µM ([1]; 33 nM/24 h treatment) of 0 to 70% and an inhibition at 1 µM ([2]; 1 μM/4 h treatment) of 30 to 95%. The inhibition at 1 µM ([2]; 1 μM/24 h treatment) was 30 to 100%, the inhibition at 0.033 µM ([3]; 33 nM/4 h treatment) was 0 to 25% and the inhibition at 0.033 µM ([3]; 33 nM/24 h treatment) was 10 to 40%. For the same compound, the inhibition at 1 µM ([3]; 1 μM/4 h treatment) was 18 to 90% and the inhibition at 1 µM ([3]; 1 μM/24 h treatment) was 30 to 90%.
